In assay [1] the target is T1, NUAK family SNF1-like kinase 2 (Homo sapiens) (UniProt Q9H093).
T1 sequence (whole entry): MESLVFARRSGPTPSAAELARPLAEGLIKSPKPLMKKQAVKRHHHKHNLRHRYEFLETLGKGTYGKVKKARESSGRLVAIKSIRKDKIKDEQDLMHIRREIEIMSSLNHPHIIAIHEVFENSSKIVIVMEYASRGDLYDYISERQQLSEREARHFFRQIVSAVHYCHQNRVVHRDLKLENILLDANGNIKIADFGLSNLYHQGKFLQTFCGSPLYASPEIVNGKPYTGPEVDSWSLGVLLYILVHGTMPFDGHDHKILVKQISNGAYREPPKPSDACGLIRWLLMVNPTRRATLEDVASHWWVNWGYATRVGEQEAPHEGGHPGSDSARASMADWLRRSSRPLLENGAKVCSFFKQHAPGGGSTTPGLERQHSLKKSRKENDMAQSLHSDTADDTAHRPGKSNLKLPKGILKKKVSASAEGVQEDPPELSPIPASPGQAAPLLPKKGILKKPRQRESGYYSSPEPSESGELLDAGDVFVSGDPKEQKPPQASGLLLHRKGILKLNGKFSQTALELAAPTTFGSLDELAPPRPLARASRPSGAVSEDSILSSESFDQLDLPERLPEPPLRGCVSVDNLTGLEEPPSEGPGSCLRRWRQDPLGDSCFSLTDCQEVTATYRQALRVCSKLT
Kind of assay: Selectivity interaction (KinomeScan (DiscoverX)) EUB0000695a NUAK2. Particulars: at 100 nM.

The target of assay [2] is T2, Receptor-type tyrosine-protein kinase FLT3 (Homo sapiens, UniProt P36888).
T2 sequence (P36888 whole entry): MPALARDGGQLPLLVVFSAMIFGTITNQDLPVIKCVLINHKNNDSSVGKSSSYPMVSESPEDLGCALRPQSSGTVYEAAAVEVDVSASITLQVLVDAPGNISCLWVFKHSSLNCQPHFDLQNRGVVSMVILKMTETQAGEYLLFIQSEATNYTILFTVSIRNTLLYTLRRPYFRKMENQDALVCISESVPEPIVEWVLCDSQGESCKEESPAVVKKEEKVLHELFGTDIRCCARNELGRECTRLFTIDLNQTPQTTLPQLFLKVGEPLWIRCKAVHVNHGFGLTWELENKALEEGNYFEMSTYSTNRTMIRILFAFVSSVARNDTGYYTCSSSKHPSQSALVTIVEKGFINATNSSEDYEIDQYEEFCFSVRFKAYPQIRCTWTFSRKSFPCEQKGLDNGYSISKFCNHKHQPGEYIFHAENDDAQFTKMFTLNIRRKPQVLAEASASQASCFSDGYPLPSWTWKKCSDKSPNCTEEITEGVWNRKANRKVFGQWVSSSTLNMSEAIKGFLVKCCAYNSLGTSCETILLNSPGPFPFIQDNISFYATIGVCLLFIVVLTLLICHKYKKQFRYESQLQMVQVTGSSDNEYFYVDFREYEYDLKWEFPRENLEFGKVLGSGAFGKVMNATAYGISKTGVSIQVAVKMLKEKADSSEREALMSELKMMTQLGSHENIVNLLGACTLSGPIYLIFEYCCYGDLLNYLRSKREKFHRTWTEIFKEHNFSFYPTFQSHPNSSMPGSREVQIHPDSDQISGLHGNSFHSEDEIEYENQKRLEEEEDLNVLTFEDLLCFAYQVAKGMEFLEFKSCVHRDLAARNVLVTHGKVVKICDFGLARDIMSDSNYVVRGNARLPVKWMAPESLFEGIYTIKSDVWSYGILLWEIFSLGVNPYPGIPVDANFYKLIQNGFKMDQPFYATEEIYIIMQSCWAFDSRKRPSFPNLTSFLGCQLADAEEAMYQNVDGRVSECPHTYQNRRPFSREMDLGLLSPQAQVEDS
Kind of assay: Selectivity interaction (Kinase panel (Eurofins, enzymatic assay)) EUB0000311b FLT3.

The target of assay [3] is Tyrosine-protein kinase Yes (Homo sapiens) (UniProt P07947). Kind of assay: Selectivity interaction (KinomeScan (DiscoverX)) EUB0001079a YES1. The note with it: at 1 µM.
Assay [4] deals with T3, Scaffold protein ILK (Homo sapiens) (UniProt Q13418).
T3 sequence (whole entry): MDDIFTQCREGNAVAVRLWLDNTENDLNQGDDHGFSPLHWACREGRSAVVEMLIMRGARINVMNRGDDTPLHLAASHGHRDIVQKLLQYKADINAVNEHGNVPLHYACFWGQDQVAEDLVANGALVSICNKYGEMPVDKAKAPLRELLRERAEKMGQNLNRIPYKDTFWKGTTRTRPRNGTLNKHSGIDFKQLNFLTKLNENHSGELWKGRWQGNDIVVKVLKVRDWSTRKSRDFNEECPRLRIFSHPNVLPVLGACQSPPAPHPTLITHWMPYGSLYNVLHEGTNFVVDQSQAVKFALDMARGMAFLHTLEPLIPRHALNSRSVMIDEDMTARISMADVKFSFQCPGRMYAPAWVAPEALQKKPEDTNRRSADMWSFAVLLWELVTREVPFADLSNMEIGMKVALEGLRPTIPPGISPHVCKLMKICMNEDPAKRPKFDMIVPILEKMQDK
Nature of the assay: Selectivity interaction (Kinase panel (KiNativ target engagement assay in Jurkat cells)) EUB0001635a ILK. Type of assay: cell-based. Particulars: Selectivity number of off-targets 0.0, Selectivity number of targets 233.0, Source Knowledge https://www.sciencedirect.com/science/article/pii/S2451945619300674?via%3Dihub, at 1 µM.

SMILES strings stand for the structures.

Chain of Tyrosine-protein kinase Yes (Homo sapiens) (P07947 2-543 limits assumed): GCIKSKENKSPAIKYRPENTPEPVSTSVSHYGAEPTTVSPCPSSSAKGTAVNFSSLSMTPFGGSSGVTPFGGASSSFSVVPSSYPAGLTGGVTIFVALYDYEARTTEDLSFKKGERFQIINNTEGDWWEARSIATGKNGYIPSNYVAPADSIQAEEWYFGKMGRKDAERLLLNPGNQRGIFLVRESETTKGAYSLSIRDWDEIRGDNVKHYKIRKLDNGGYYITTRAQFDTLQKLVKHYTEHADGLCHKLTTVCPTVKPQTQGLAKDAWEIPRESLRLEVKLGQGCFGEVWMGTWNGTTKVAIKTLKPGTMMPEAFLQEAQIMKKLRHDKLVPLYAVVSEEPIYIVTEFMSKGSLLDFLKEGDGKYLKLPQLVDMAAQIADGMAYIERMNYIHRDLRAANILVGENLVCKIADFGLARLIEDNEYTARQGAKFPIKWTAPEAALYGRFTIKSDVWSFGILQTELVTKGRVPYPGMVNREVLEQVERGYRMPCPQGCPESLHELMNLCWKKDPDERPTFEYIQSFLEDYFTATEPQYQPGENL

For the molecule `Cc1cc(F)c(C(=O)Nc2cccc(-c3nncn3C(C)C)n2)cc1-n1cnc(C2CC2)c1`, the % of control in assay [1] stood at 94%.

Take `CCc1ccccc1C(=O)Nc1n[nH]c2c(C)c(F)c(C3C(C#N)=C(C)N(C)C(C)=C3C#N)cc12` [BAY-3827]: the midpoint of inhibition in assay [2], the IC50, lay at 124 nM.

With `Nc1cnc(N2CCc3cc(S(=O)(=O)Nc4c(F)cc(Cl)cc4F)cc(N4CCCC4=O)c32)nc1` [TP-020n], the % of control in assay [3] is 100%.

As for `C=CC(=O)Nc1ccc(C(=O)Nc2[nH]nc3c2CN(C(=O)N[C@H](CN(C)C)c2ccccc2)C3(C)C)cc1`, the % of engagement in assay [4] was -20.3%.

Source of the values: ChEMBL document CHEMBL5465560, “Selectivity Literature for EUbOPEN Chemogenomic Library” (2024).
